Values after ≈ are worked out from the molar mass of the structure shown.
Tested on: not listed separately
Assay: in vitro
Conditions: mouse, plasma

`CC(C)[N+](C)(CCOC(=O)C1c2ccccc2Oc2ccccc21)C(C)C` [Propantheline bromide] gave a half-life of 38.3 min.

Tested on: not listed separately
Assay: in vitro
Conditions: mouse, liver microsomes

`COc1ccc2c(c1)[C@]13CCCC[C@@H]1[C@H](C2)N(C)CC3` [Dextromethorphan] and `COc1ccc2[nH]c([S+]([O-])Cc3ncc(C)c(OC)c3C)nc2c1` (centres unmarked) [Omeprazole] are within 1.5-fold of each other in microsomal CLint: 179 µL/min/mg for the first, 143 µL/min/mg for the second.

For `O=C(O)Cc1ccccc1Nc1c(Cl)cccc1Cl` [Diclofenac], the microsomal CLint was 121 µL/min/mg.

Tested on: not listed separately
Assay: in vitro
Conditions: mouse, liver microsomes
Remark: another data set of the same source

`COc1ccc2c(c1)[C@]13CCCC[C@@H]1[C@H](C2)N(C)CC3` [Dextromethorphan] and `COc1ccc2[nH]c([S+]([O-])Cc3ncc(C)c(OC)c3C)nc2c1` (centres unmarked) [Omeprazole] are within 1.5-fold of each other in half-life: 7.7 min for the first, 9.7 min for the second.

For `O=C(O)Cc1ccccc1Nc1c(Cl)cccc1Cl` [Diclofenac], the half-life was 11.5 min.

Tested on: S. aureus ATCC 29213
Assay: microbe, parasite or virus in culture
Conditions: Staphylococcus aureus, ATCC29213, read-out: MIC (µg/mL)

Going from `CCCCOc1ccc(C(=O)NNC(=S)NC(C)=O)cc1` [1a] to `CCCOc1ccc(C(=O)NNC(=S)NC(C)=O)cc1` [B5], the MIC rises from 1.56 µg/mL (≈ 5.04 µM) to 6.25 µg/mL (≈ 21.2 µM) (4-fold).

Compared with `CCCCCCOc1ccc(C(=O)NNC(=S)NC(C)=O)cc1` [1c, N-(2-(4-(n-hexoxy)benzoyl)hydrazine-1-carbonothioyl)acetamide], `CCCCCCCCCCCOc1ccc(C(=O)NNC(=S)NC(C)=O)cc1` [1d] is 64-fold higher in MIC: 1.56 µg/mL (≈ 4.62 µM) for the first, 100 µg/mL (≈ 245 µM) for the second.

Going from `CC(=O)NC(=S)NNC(=O)c1ccc(OCCCC(C)C)cc1` [1e] to `COCCCOc1ccc(C(=O)NNC(=S)NC(C)=O)cc1` [1f], the MIC rises from 3.12 µg/mL (≈ 9.25 µM) to > 100 µg/mL.

Going from `CCCCCOc1ccc(C(=O)NNC(=S)NC(C)=O)cc1OCCCCC` [1h] to `CCCCCOc1ccc(C(=O)NNC(=S)NC(C)=O)cc1O` [1i], the MIC rises from 6.25 µg/mL (≈ 15.3 µM) to 25 µg/mL (≈ 73.7 µM) (4-fold).

Going from `CC(=O)NC(=S)NNC(=O)c1ccc(O)c(O)c1` [1j] to `CC(=O)NC(=S)NNC(=O)c1ccc2ccccc2c1` [1t], the MIC falls from 100 µg/mL (≈ 371 µM) to 6.25 µg/mL (≈ 21.8 µM) (16-fold).

Going from `CCCCCOc1ccc(C(=O)NNC(=S)NC(C)=O)c(C)c1` [1k] to `CCCCCOc1ccc(C(=O)NNC(=S)NC(C)=O)nc1` [1o], the MIC rises from 3.12 µg/mL (≈ 9.25 µM) to 25 µg/mL (≈ 77.1 µM) (8-fold).

Compared with `CC(=O)NC(=S)NNC(=O)c1ccc(OC2CCCCC2)cc1` [1m], `CC(=O)NC(=S)NNC(=O)c1ccc(C2CCCCC2)cc1` [1v, N-(2-(4-cyclohexylbenzoyl)hydrazine-1-carbonothioyl)acetamide] is 4-fold lower in MIC: 1.56 µg/mL (≈ 4.65 µM) for the first, 0.39 µg/mL (≈ 1.22 µM) for the second.

First: CC(=O)NC(=S)NNC(=O)c1ccc(Oc2ccccc2)cc1 [1n]
Second: CC(=O)NC(=S)NNC(=O)c1ccc(-c2ccccc2)cc1 [1r]
The MIC of the first is 2-fold higher: 3.12 µg/mL (≈ 9.47 µM) for the first, 1.56 µg/mL (≈ 4.98 µM) for the second.

Going from `CCCCCOc1ccc(CC(=O)NNC(=S)NC(C)=O)cc1` [1p] to `CCCCCOc1ccc(CCC(=O)NNC(=S)NC(C)=O)cc1` [1q], the MIC rises from 25 µg/mL (≈ 74.1 µM) to > 100 µg/mL.

`CC(=O)NC(=S)NNC(=O)c1cccc(-c2ccccc2)c1` [1s] and `CC(=O)NC(=S)NNC(=O)c1ccc(C2CC2)cc1` [1u] are the same in MIC: 3.12 µg/mL (≈ 9.96 µM) for the first, 3.12 µg/mL (≈ 11.2 µM) for the second.

Compared with `CCC1CCC(c2ccc(C(=O)NNC(=S)NC(C)=O)cc2)CC1` (centres unmarked) [1w, N-(2-(4-(4-ethylcyclohexyl)benzoyl)hydrazine-1-carbonothioyl)acetamide], `CC(=O)NC(=S)NNC(=O)c1ccc(N2CCOCC2)cc1` [1x] is 500-fold higher in MIC: 0.2 µg/mL (≈ 0.576 µM) for the first, 100 µg/mL (≈ 310 µM) for the second.

— paper doi:10.1101/2024.09.05.611349v1 (biorxiv, 2024)
